According to US9709886B2, “Sulfonic acid derivative compounds as photoacid generators in resist applications” (Heraeus Precious Metals North America Daychem LLC, priority 2015, dated 2017):

Experiments:
Format in all cases: physicochemical
[1] = Solubility of PAG in organic solvents at 20° C.; settings: for Solubility (w/w%) PGMEA: Propylene glycol monomethyl ether acetate; for Solubility (w/w%) GBL: γ-Butyrolactone; for solubility in the tested solvents: PGMEA, GBL; for Solubility (w/w%) Cyclohexanone / solubility in the tested solvents: cyclohexanone
From the text: Solubility is an important factor in the evaluation of a PAG. High solubility not only makes a PAG purified readily but also enables a PAG to be used for a wide range of concentrations in photoresists and in varied solvent systems. To test the solubility of a PAG, a solvent is slowly added until the PAG is completely dissolved and no turbidity is observed in the clear solution. Table 8 lists the solubility (w/w %) of some representative N-hydroxynaphthalimide sulfonate derivatives versus NIT in various organic solvents at 20° C.

[2] = Photolysis of PAGs in acetonitrile, irradiation at 365 nm (photoreactivity); settings: for Solubility × Photoreactivity: solubility in PGMEA times relative photoreactivity at 365 nm
From the text: A photoresist composition typically comprises PAG, polymers, additives and solvents. The performance of a photoresist composition is mainly dependent on the properties of the PAG and polymer components. To formulate a high-performance photoresist composition, more photosensitive PAGs are typically selected. The photosensitivity of a PAG is typically directly related to the strength of the generated acid and the photoreactivity of the PAG. For a series of PAGs producing the same latent acid, their photosensitivity is related only to their photoreactivity. Thus evaluating the photosensitivity of a PAG can be achieved by studying its photoreactivity. The higher photoreactivity, the higher photosensitivity. The photoreactivity can be investigated by photolysis of a PAG in its dilute solution under low exposure intensity (to avoid side reactions which don't generate the desired acid). The change in the concentration of a PAG upon irradiation can be determined by measuring the absorbance of the PAG at the maximum absorption wavelength.
(§1) Photolysis of PAGs was carried out in acetonitrile in air at room temperature. The sodium salt of tetrabromophenol blue (TBPBNa), an acid indicator dye, which has a maximum absorption at 618 nm, was purchased from Aldrich (indicator grade) and used as received. Irradiation of the solution of the PAGs (3×10^−5 M) was performed using a Cole-Parmer UV 15 W bench lamp (EW-97605-50) at 365 nm. Light intensity was measured using an UV Power Puck II radiometer from EIT Inc. UV-Vis spectra were run on a Thermo Scientific Evolution 201 UV-visible spectrophotometer.
Photolysis of NIT, comparative compound A and B, T1, T2, T3, and T5 was examined in acetonitrile. […] The absorption band at 362 nm (λmax) gradually decreases upon irradiation, indicating the progress of photoreaction with the increase of exposure dose of energy. Assuming the photoreaction is first-order, a plot of the natural log of changes in absorbance with exposure dose of energy gives the photoreaction constant of T3 (i.e., the slope of the linear trendline) (FIG. 2). The photoreaction constants of other compounds were similarly determined under the same irradiation condition. Comparing the constants of A, B, T1, T2, T3, and T5 with that of NIT normalized to one gives the relative photoreactivity (Table 9). […] The formation of acid upon irradiation was confirmed by observing the spectral changes of the acid indicator, TBPBNa at 618 nm.

UV-Vis spectra in ACN = settings: FIG. 4, in ACN (0.001% w/v)
Method: FIG. 4 is a UV-Vis spectra of compounds NIT, T1, T2 and T5 in ACN (0.001% w/v).
as §1

[3] = Solubility of PAG in organic solvents at 20° C.; settings: Table 9; Propylene glycol monomethyl ether acetate

Compound | Solubility (w/w%) PGMEA [1] | Solubility (w/w%) Cyclohexanone [1] | Solubility (w/w%) GBL [1] | Solubility × Photoreactivity [2] | absorbance at i-line of a mercury lamp versus NIT (UV-Vis spectra in ACN) | absorption maximum (UV-Vis spectra in ACN) | Solubility (w/w%) in PGMEA [3] | solubility in the tested solvents [1] | absorption band (λmax) ([2]; FIG. 1, acetonitrile, before irradiation at 365 nm)
CCCCC#Cc1ccc2c3c(cccc13)C(=O)N(OS(=O)(=O)C(F)(F)C(F)(F)C(F)(F)C(F)(F)F)C2=O [Compound T1] | 8.3% w/w% | 19.7% w/w% | 1.5% w/w% | 77.2% | much larger than that of NIT | 362 nm | 8.3% w/w% |  | 
O=C1c2cccc3cccc(c23)C(=O)N1OS(=O)(=O)C(F)(F)F [NIT, N-Hydroxynaphthalimide triflate, reference compound] | 1.7% w/w% | 5.9% w/w% | 2.2% w/w% | 1.7% |  |  | 1.7% w/w% |  | 
O=C1c2cccc3c(C#Cc4ccccc4)ccc(c23)C(=O)N1OS(=O)(=O)C(F)(F)F [A, reference compound] | 1.0% w/w% | 3.5% w/w% | 0.9% w/w% | 2.5% |  |  | 1.0% w/w% |  | 
CCCCC#Cc1ccc2c3c(cccc13)C(=O)N(OS(=O)(=O)C(F)(F)F)C2=O [B, reference compound] | 6.1% w/w% | 11.5% w/w% | 2.3% w/w% | 48.8% |  |  | 6.1% w/w% |  | 
CCCCCCC#Cc1ccc2c3c(cccc13)C(=O)N(OS(=O)(=O)C(F)(F)C(F)(F)C(F)(F)C(F)(F)F)C2=O [Compound T3] | 20.6% w/w% | 42.0% w/w% | 2.2% w/w% | 198% |  |  | 20.6% w/w% |  | 362 nm

Continued, in another order:

Solubility (w/w%) PGMEA [1] | Solubility (w/w%) Cyclohexanone [1] | Solubility (w/w%) GBL [1] | Solubility × Photoreactivity [2] | absorbance at i-line of a mercury lamp versus NIT (UV-Vis spectra in ACN) | absorption maximum (UV-Vis spectra in ACN) | Solubility (w/w%) in PGMEA [3] | solubility in the tested solvents [1] | Compound | absorption band (λmax) ([2]; FIG. 1, acetonitrile, before irradiation at 365 nm)
45.8% w/w% | 52.4% w/w% | 23.1% w/w% | 394% | much larger than that of NIT | 362 nm | 45.8% w/w% | extremely high solubility | CCCCCCC#Cc1ccc2c3c(cccc13)C(=O)N(OS(=O)(=O)C(F)(F)F)C2=O [Compound T2] | 
50.1% w/w% | 55.4% w/w% | 32.4% w/w% | 200% | much larger than that of NIT | 353 nm | 50.1% w/w% | extremely high solubility | CCCC(=O)OCC#Cc1ccc2c3c(cccc13)C(=O)N(OS(=O)(=O)C(F)(F)F)C2=O [Compound T5] | 
